Earlier results as cited in US20050049255A1, “Therapeutic combinations” (Pfizer Inc, priority 2003, published 2005).

Tested on: dysmenorrhoea

Compound	efficacy in the treatment of dysmenorrhoea (given intravenously, pilot study)	intensity of pain in women with dysmenorrhoea (double blind, randomised placebo controlled cross over trial, oral)
1-deamino-2-D-Tyr (Oet)-4-Thr-8-Orn-oxytocin	effective in the treatment of dysmenorrhoea	
COc1ccc(S(=O)(=O)N2c3ccc(Cl)cc3[C@](O)(c3ccccc3Cl)[C@@H]2C(=O)N2CCC[C@H]2C(N)=O)cc1OC [Relcovaptan]		dose dependently reduced the intensity of pain
